In patent US10233179B2, “Thiazoles and uses thereof” (AbbVie Inc., priority 2013, dated 2019):

Legend:
[1] = test system: RSV (Group A, Long Strain); assay: Antiviral cytopathic effect (CPE) protection assay, MTT readout; type: cell-based; details: human respiratory syncytial virus, 96 h; HEp-2 cells, 0.2 MOI RSV, 4 days incubation, protection from CPE by MTT
Experimental: HEp-2 cells and RSV (Group A, Long Strain) were obtained from the American Type Culture Collection (Manassas, Va.).
A cytopathic effect (CPE) protection assay was performed to determine the ability of a compound to protect the cells from viral infection and thus the CPE induced by viral infection. 96-Well plates were first seeded with 3×10^3 HEp-2 cells per well in Dulbecco's modified Eagle's medium (DMEM) containing 10% fetal bovine serum (FBS). One day after the cells were seeded, they were preincubated with serial dilutions of compounds prepared in 100 μL assay medium (DMEM mixed with F12 medium at a 1:1 ratio, supplemented with 2% FBS and 1 mM sodium pyruvate) for 1 hour at 37° C. 100 μL of assay medium containing 0.2 multiplicity of infection (MOI) of RSV was then added to each well of cells. In addition to wells containing infected cells incubated with compounds, each plate also contained replicates of two kinds of controls: (1) Virus control contained cells infected with 0.2 MOI of RSV in assay medium, (2) Uninfected cell control contained cells incubated with assay medium only. After 4 days of incubation at 37° C., the viability of cells was assessed using MTT (Thiazolyl blue tetrazolium bromide, Sigma). A stock solution of MTT, at a concentration of 4 mg/mL in phosphate-buffered saline, was added to all wells at 25 μL per well. Plates were further incubated for 4 hours, and each well was then treated with 50 μL of a solution containing 20% sodium dodecyl sulfate (SDS) and 0.02 N HCl. After an overnight incubation, the plates were measured on a BioTek® microtiter plate reader at wavelengths of 570 nm and 650 nm. The MTT detection is based on the fact that viable (uninfected) cells can reduce the tetrazolium salts into colored formazan products, which can then be quantitated by spectrometry. Based on the spectrometric absorbance of each sample, the percent of protection from CPE, which is an indicator of protection from viral infection, can be calculated for each compound and the 50% effective concentrations (EC50) can be calculated using a nonlinear regression curve fitting equation provided by the GraphPad Prism® 4 software.
Compounds were tested to determine both their antiviral and toxicity to determine their therapeutic window. Determination of the EC50 and TD50 of these active compounds were repeated one additional time to confirm the window.

[2] = test system: HEp-2 cells; assay: Cytotoxicity assay (MTT) in parallel with the antiviral assay; type: cell-based
Experimental: HEp-2 cells and RSV (Group A, Long Strain) were obtained from the American Type Culture Collection (Manassas, Va.). Cytotoxicity of the compounds was determined in experiments done in parallel with the antiviral assays. To do this, 100 μL of assay medium was added to the wells of HEp-2 cells pretreated with 100 μL serially diluted compounds as described above. After 4 days of incubation, the viability of the cells was determined by the MTT assay in the same way as detailed in the “Antiviral Assay” method. Results were expressed as 50% toxicity dose (TD50) values. Compounds were tested to determine both their antiviral and toxicity to determine their therapeutic window. Determination of the EC50 and TD50 of these active compounds were repeated one additional time to confirm the window.

[3] = uninfected HEp-2 cells, 4 days incubation, MTT viability

SMILES	EC50 [1]	MTT TD50 [2, 3]	MTT TD50 ([2]; human, 4 days)
c1cc(CN(Cc2cccn2-c2nccs2)C2CCCCC2)n(-c2nccs2)c1 [Example 52, N,N-bis{[1-(1,3-thiazol-2-yl)-1H-pyrrol-2-yl]methyl}cyclohexanamine]	100 nM	7.2 µM	
FC(F)(F)c1ccc(CN(Cc2cccn2-c2nncs2)Cc2cccn2-c2nncs2)cc1 [Example 54, 1-[1-(1,3,4-thiadiazol-2-yl)-1H-pyrrol-2-yl]-N-{[1-(1,3,4-thiadiazol-2-yl)-1H-pyrrol-2-yl]methyl}-N-[4-(trifluoromethyl)benzyl]methanamine]	> 21000 nM	21 µM	
Clc1cccc(Cl)c1CN(Cc1cccn1-c1nncs1)Cc1cccn1-c1nncs1 [Example 55, 1-(2,6-dichlorophenyl)-N,N-bis{[1-(1,3,4-thiadiazol-2-yl)-1H-pyrrol-2-yl]methyl}methanamine]	> 32000 nM	>32 µM	
N#Cc1ccc(CN(Cc2cccn2-c2nncs2)Cc2cccn2-c2nncs2)cc1 [Example 56, 4-[(bis{[1-(1,3,4-thiadiazol-2-yl)-1H-pyrrol-2-yl]methyl}amino)methyl]benzonitrile]	46000 nM	>100 µM	
FC1(F)CCC(CN(Cc2cccn2-c2nccs2)Cc2cccn2-c2nccs2)CC1 [Example 57, 1-(4,4-difluorocyclohexyl)-N,N-bis{[1-(1,3-thiazol-2-yl)-1H-pyrrol-2-yl]methyl}methanamine]	310 nM	20 µM	
c1cncc(C2(CCN(Cc3cccn3-c3nccs3)Cc3cccn3-c3nccs3)CC2)c1 [Example 60, 2-[1-(pyridin-3-yl)cyclopropyl]-N,N-bis{[1-(1,3-thiazol-2-yl)-1H-pyrrol-2-yl]methyl}ethanamine]	850 nM	>100 µM	
c1cc(CN(Cc2cccn2-c2nncs2)C[C@H]2CCOC2)n(-c2nncs2)c1 [Example 61, 1-[(3R)-tetrahydrofuran-3-yl]-N,N-bis{[1-(1,3,4-thiadiazol-2-yl)-1H-pyrrol-2-yl]methyl}methanamine]	> 100000 nM	>100 µM	
C[C@H](c1ccc(F)cc1)N(Cc1cccn1-c1nccs1)Cc1cccn1-c1nccs1 [Example 62, (1R)-1-(4-fluorophenyl)-N,N-bis{[1-(1,3-thiazol-2-yl)-1H-pyrrol-2-yl]methyl}ethanamine]	> 3000 nM	3.0 µM	
CC(Cc1cccs1)N(Cc1cccn1-c1nccs1)Cc1cccn1-c1nccs1 (centres unmarked) [Example 64, N,N-bis{[1-(1,3-thiazol-2-yl)-1H-pyrrol-2-yl]methyl}-1-(thiophen-2-yl)propan-2-amine]	330 nM		5.6 µM
c1cc(CN(CCC2(c3ccncc3)CC2)Cc2cccn2-c2nccs2)n(-c2nccs2)c1 [Example 66, 2-[1-(pyridin-4-yl)cyclopropyl]-N,N-bis{[1-(1,3-thiazol-2-yl)-1H-pyrrol-2-yl]methyl}ethanamine]	200 nM	14 µM	

Continued, in another order:

EC50 [1]	SMILES	MTT TD50 [2, 3]	MTT TD50 ([2]; human, 4 days)
2700 nM	c1ccc(N(Cc2cccn2-c2nccs2)Cc2cccn2-c2nccs2)cc1 [Example 53, N,N-bis{[1-(1,3-thiazol-2-yl)-1H-pyrrol-2-yl]methyl}aniline]	>32 µM	
520 nM	FC(F)(F)Cn1cc(CN(Cc2cccn2-c2nccs2)Cc2cccn2-c2nccs2)cn1 [Example 58, 1-[1-(1,3-thiazol-2-yl)-1H-pyrrol-2-yl]-N-{[1-(1,3-thiazol-2-yl)-1H-pyrrol-2-yl]methyl}-N-{[1-(2,2,2-trifluoroethyl)-1H-pyrazol-4-yl]methyl}methanamine]	49 µM	
4100 nM	FC(F)n1ccnc1CN(Cc1cccn1-c1nccs1)Cc1cccn1-c1nccs1 [Example 59, 1-[1-(difluoromethyl)-1H-imidazol-2-yl]-N,N-bis{[1-(1,3-thiazol-2-yl)-1H-pyrrol-2-yl]methyl}methanamine]	35 µM	
260 nM	c1coc(CN(Cc2cccn2-c2nccs2)Cc2cccn2-c2nccs2)c1 [Example 63, 1-(furan-2-yl)-N,N-bis{[1-(1,3-thiazol-2-yl)-1H-pyrrol-2-yl]methyl}methanamine]	20 µM	
90 nM	c1cncc(C2(CN(Cc3cccn3-c3nccs3)Cc3cccn3-c3nccs3)CC2)c1 [Example 65, 1-[1-(pyridin-3-yl)cyclopropyl]-N,N-bis{[1-(1,3-thiazol-2-yl)-1H-pyrrol-2-yl]methyl}methanamine]	25 µM	
82 nM	N#Cc1cc(CN(Cc2cccn2-c2nccs2)Cc2cccn2-c2nccs2)cs1 [Example 67, 4-[(bis{[1-(1,3-thiazol-2-yl)-1H-pyrrol-2-yl]methyl}amino)methyl]thiophene-2-carbonitrile]	>32 µM	
